The text below walks through data of ChEMBL document CHEMBL4342418, “1,2,3-Triazole-containing hybrids as potential anticancer agents: Current developments, action mechanisms and structure-activity relationships” (Eur J Med Chem, 2019).

Test [1] can be described thus: Antiproliferative activity against human GBM2 cells assessed as reduction in cell viability after 72 hrs by MTT assay. Format: functional, cell-based. The conditions noted are these: GBM2, 72 h. (In general: Tetrazolium dyes change colour on reduction, which living cells bring about.)
Test [2] can be described thus: Antiproliferative activity against human GBM95 cells assessed as reduction in cell viability after 72 hrs by MTT assay. The format is functional, cell-based.
Test [3] has as its system MCF7. The test is described as follows: Antiproliferative activity against human MCF7 cells assessed as reduction in cell viability after 72 hrs by MTT assay. Format: functional, cell-based. The conditions noted are these: MCF7, 72 h.
Test [4] relates to PC-3. The test is described as follows: cells. Format: functional, cell-based. The conditions noted are these: Homo sapiens, PC-3, 48 h.
Description: Antiproliferative activity against human PC3 cells assessed as reduction in cell viability after 48 hrs by MTT assay
For another test, the system named is HGC-27. The test is described as follows: Antiproliferative activity against human HGC27 cells assessed as reduction in cell viability after 48 hrs by MTT assay. The format is functional, cell-based. The conditions noted are these: HGC-27, 48 h.
For test [5], the system named is HT-29. The experiment in a line: Antiproliferative activity against human HT-29 cells assessed as reduction in cell viability after 48 hrs by MTT assay. Format: functional, cell-based. The note with it: HT-29, 48 h.
The test system of the next test is DU-145. The experiment in a line: Antiproliferative activity against human DU145 cells by SRB assay. The format is functional, cell-based.
For test [6], the system named is MCF7. The experiment in a line: Antiproliferative activity against human MCF7 cells by SRB assay. Format: functional, cell-based. In general terms: In SRB staining, fixed cells bind dye roughly in proportion to their protein.
A further test relates to SK-OV-3. The test is described as follows: Antiproliferative activity against human SKOV3 cells by SRB assay. Format: functional, cell-based.
The subject of test [7] is HeLa. The test is described as follows: Antiproliferative activity against human HeLa cells by SRB assay. The format is functional, cell-based.
Test [8] has as its system HepG2. The test is described as follows: Antiproliferative activity against human HepG2 cells by SRB assay. The format is functional, cell-based.
Another test concerns MCF7-DOX. The experiment in a line: Antiproliferative activity against human MCF7/Dox cells by SRB assay. Format: functional, cell-based.
Test [9] has as its system A549. The test is described as follows: Antiproliferative activity against human A549 cells by SRB assay. The format is functional, cell-based.
In test [10] the test system is A549. The test is described as follows: cells. The format is functional, cell-based. The conditions noted are these: Homo sapiens.
Description: Antiproliferative activity against human A549 cells by MTT assay
The subject of another test is HBL-100. The experiment in a line: Antiproliferative activity against human HBL100 cells by MTT assay. Format: functional, cell-based.
The next test has as its system T47D. The test is described as follows: Antiproliferative activity against human T47D cells by MTT assay. The format is functional, cell-based.
For test [11], the system named is HeLa. The test is described as follows: Antiproliferative activity against human HeLa cells by MTT assay. The format is functional, cell-based.
A further test concerns WiDr. The test is described as follows: Antiproliferative activity against human WiDr cells by MTT assay. The format is functional, cell-based.
The next test has as its system hTERT-BJ. The test is described as follows: Cytotoxicity activity against human hTERT-BJ cells by MTT assay. Format: cell-based.
In another test the test system is SW1573. The experiment in a line: Antiproliferative activity against human SW1573 cells by MTT assay. Format: functional, cell-based.
Test [12] can be described thus: Antiproliferative activity against human HCG27 cells by MTT assay. Format: functional, cell-based.
Test [13] relates to MDA-MB-231. The test is described as follows: Antiproliferative activity against human MDA-MB-231 cells assessed as reduction in cell viability after 24 hrs by MTT assay. Format: functional, cell-based. The conditions noted are these: MDA-MB-231, 24 h.
Test [14] concerns HeLa. The test is described as follows: Antiproliferative activity against human HeLa cells assessed as reduction in cell viability after 24 hrs by MTT assay. The format is functional, cell-based.
A further test has as its system ECa-109 cell line. The experiment in a line: Antiproliferative activity against human EC109 cells by MTT assay. Format: functional, cell-based.
The subject of another test is MKN-28. The test is described as follows: Antiproliferative activity against human MKN28 cells by MTT assay. Format: functional, cell-based.
The next test deals with SK-N-SH. The experiment in a line: Antiproliferative activity against human SK-N-SH cells by MTT assay. Format: functional, cell-based.
The subject of test [15] is HepG2. The test is described as follows: Antiproliferative activity against human HepG2 cells assessed as reduction in cell viability after 24 hrs by MTT assay. The note with it: HepG2, 24 h. Format: functional, cell-based.
The next test relates to U-87 MG. The test is described as follows: Antiproliferative activity against human U87MG cells assessed as reduction in cell viability after 48 hrs by MTT assay. The format is functional, cell-based, U-87MG ATCC.
For the next test, the system named is MGC-803. The test is described as follows: Antiproliferative activity against human MGC803 cells by MTT assay. The format is functional, cell-based.
The subject of test [16] is A549. The experiment in a line: Antitumour activity against human A549 cells xenografted in Kunming mice assessed as tumour growth inhibition at 20 mg/kg, iv bid administered and measured after week relative to control. The format is functional. The conditions noted are these: Mus musculus, read-out: TGI. A general note: In xenograft studies the graft and the host belong to different species.

In test [17] the test system is MCF7. The experiment in a line: cells. Format: functional, cell-based. The note with it: Homo sapiens.
Description: Antiproliferative activity against human MCF7 cells by MTT assay
For the next test, the system named is MDA-MB-468. The experiment in a line: Antiproliferative activity against human MDA-MB-468 cells assessed as reduction in cell viability after 72 hrs by MTT assay. The format is functional, cell-based. The conditions noted are these: MDA-MB-468, 72 h.
The test system of test [18] is MDA-MB-231. The experiment in a line: Antiproliferative activity against human MDA-MB-231 cells assessed as reduction in cell viability after 72 hrs by MTT assay. Format: functional, cell-based. The note with it: MDA-MB-231, 72 h, read-out: IC50.
Test [19] has as its system PC-3. The test is described as follows: Antiproliferative activity against human PC3 cells assessed as reduction in cell viability after 24 hrs by MTT assay. Format: functional, cell-based. The conditions noted are these: PC-3, 24 h.
The subject of test [20] is HepG2. The test is described as follows: Antiproliferative activity against human HepG2 cells by MTT assay. The format is functional, cell-based.
Test [21] concerns A549. The test is described as follows: Antiproliferative activity against human A549 cells assessed as reduction in cell viability after 48 hrs by MTT assay. The format is functional, cell-based. The conditions noted are these: A549, 48 h.
The next test has as its system MKN-45. The test is described as follows: Antiproliferative activity against human MKN45 cells by MTT assay. The format is functional, cell-based.
Test [22] relates to MCF7. The experiment in a line: Antiproliferative activity against human MCF7 cells assessed as reduction in cell viability after 48 hrs by SRB assay. Format: functional, cell-based. The note with it: MCF7, 48 h.
Test [23] concerns HT-29. The test is described as follows: Antiproliferative activity against human HT-29 cells assessed as reduction in cell viability after 48 hrs by SRB assay. The format is functional, cell-based. The note with it: HT-29, 48 h.
Another test relates to HCT-116. The test is described as follows: Antiproliferative activity against human HCT116 cells assessed as reduction in cell viability after 48 hrs by SRB assay. The format is functional, cell-based. The conditions noted are these: HCT-116, 48 h.
Test [24] deals with A549. The test is described as follows: Antiproliferative activity against human A549 cells assessed as reduction in cell viability after 48 hrs by SRB assay. Format: functional, cell-based. The conditions noted are these: A549, 48 h.
Test [25] relates to HT-29. The experiment in a line: Potency index, ratio of Sorafenib IC50 to test compound IC50 for antiproliferative activity against human HT-29 cells. The format is functional.
In test [26] the test system is MCF7. The test is described as follows: Potency index, ratio of Sorafenib IC50 to test compound IC50 for antiproliferative activity against human MCF7 cells. Format: functional.
Test [27] deals with HT-29. The test is described as follows: Antiproliferative activity against human HT-29 cells assessed as reduction in cell viability after 72 hrs by MTT assay. The note with it: HT-29, 72 h. Format: functional, cell-based.

In brackets after ≈: the same amount, converted by molar mass.

In the case of `Cn1nnc2c(C(N)=O)ncn2c1=O` [TEMOZOLOMIDE], the results for the IC50 in test [1] and in [2] were 1130 µM and 625 µM, respectively.

Turning to `COc1ccc(-c2nc(Cn3cc(CN4C(=O)c5cccc6cccc(c56)C4=O)nn3)cc3c2[nH]c2ccccc23)cc1OC`, the IC50 in the test on MCF7 [3], in the test with PC-3 [4], with HGC-27 and in the test with HT-29 [5] was 3.67 to 26.5 µM each time.

As to `Cc1ccc2c(c1)/C(=N/O)C(=O)N2CCOCCn1cc(COc2ccc3c(C)cc(=O)oc3c2)nn1`, the half-maximal inhibitory concentration (IC50) with DU-145, in the test on MCF7 [6], in the test with SK-OV-3, in the test on HeLa [7], in the test on HepG2 [8] and in the test on MCF7-DOX was 15.5 to 31.5 µM throughout. For the same compound, the IC50 (usually the concentration at which inhibition is half-maximal) in the test on A549 [9] is 15.5 to 31.5 µM.

Take `C=CCC1CC(Cc2cn([C@@H](Cc3ccccc3)c3nc(C(=O)OC)co3)nn2)CC(O[Si](C)(C)C(C)(C)C)C1` (stereo partly drawn): the IC50 in the test with A549 [10] was 3.1 to 6.6 µM; with HBL-100, 3.1 to 6.6 µM; in the test on T47D it was 3.1 to 6.6 µM; in the test on HeLa [11], 3.1 to 6.6 µM; in the test with WiDr it was 3.1 to 6.6 µM; in the test on hTERT-BJ it was 53 µM. This compound came in with a half-inhibitory concentration (IC50) with SW1573 of 3.1 to 6.6 µM.

As for `O=c1[nH]cc(F)c(=O)[nH]1` [FLUOROURACIL], the IC50 in [12] lay within 6.5 to 14.6 µM; in the test on MCF7 [3], 7.5 to 12.7 µM; in the test with A549 [10], 4.3 to 49 µM; in the test with MDA-MB-231 [13], 1.6 to 1.9 µM; with HeLa [14], 1.6 to 1.9 µM; in the test with ECa-109 cell line it was 6.5 to 14.6 µM. In addition, the 50% inhibitory concentration (IC50) in the test with MKN-28 lay within 6.9 to 19.4 µM; in the test with SK-N-SH, 7.22 to 10.3 µM; with HepG2 [15] it was 1.6 to 1.9 µM; in the test on U-87 MG it was 2.42 to 3.61 µM; with HBL-100 it was 4.3 to 49 µM; in the test with PC-3 [4], 2.42 to 3.61 µM. In addition, the 50% inhibitory concentration (IC50) in the test with MGC-803 is 6.5 to 14.6 µM; in the test on T47D it was 4.3 to 49 µM; with HeLa [11] it was 4.3 to 49 µM; with WiDr, 4.3 to 49 µM; with MCF7 [17], 30 µg/mL (≈ 231 µM); in the test with MDA-MB-468 it was 7.5 to 12.7 µM. In addition, the IC50 in the test with HT-29 [5] was 2.42 to 3.61 µM; in the test with MDA-MB-231 [18] it was 7.5 to 12.7 µM; in the test with PC-3 [19] it was 1.6 to 1.9 µM; in the test on hTERT-BJ, 5.5 µM; with SW1573 it was 4.3 to 49 µM; in the test with HepG2 [20], 7.22 to 10.3 µM. The half-maximal inhibitory concentration (IC50) was 2.42 to 3.61 µM with A549 [21] and 6.9 to 19.4 µM in the test with MKN-45. The inhibition in vivo at 20 mg/kg with A549 [16] is 64.7%.

For the compound `O=C(/C=C/c1cn(-c2ccccc2)nc1-c1ccccc1)OCc1cn(-c2ccc([N+](=O)[O-])cc2)nn1`, the half-maximal inhibitory concentration (IC50) with MCF7 [22], in the test with HT-29 [23], in the test on HCT-116 and in the test with A549 [24] was 1.76 to 9.46 µM throughout.

As for `CNC(=O)c1cc(Oc2ccc(-n3cc(-c4ccccc4F)nn3)cc2)ccn1`, the “Ratio IC50” value in the test on HT-29 [25] and in the test on MCF7 [26] was 6.2 - 131.2 in each case. Besides, the IC50 in the test with MCF7 [3] and with HT-29 [27] was 0.2 to 0.84 µM each time.

In the case of `CNC(=O)c1cc(Oc2ccc(-n3cc(-c4cccs4)nn3)cc2)ccn1`, the “Ratio IC50” value with HT-29 [25] and with MCF7 [26] was 6.2 - 131.2 each time. Besides, the 50% inhibitory concentration (IC50) with MCF7 [3] and in the test with HT-29 [27] was 0.2 to 0.84 µM each time.

Take `COc1cc(-c2nc(Cn3cc(CN4C(=O)c5ccc(C)cc5C4=O)nn3)cc3c2[nH]c2ccccc23)cc(OC)c1OC`: the IC50 in the test with MCF7 [3], in the test on PC-3 [4], with HGC-27 and in the test with HT-29 [5] was 3.67 to 26.5 µM throughout.
